≈ marks a conversion by molar mass, not a printed value. Where “and” joins values, the source holds several entries; their conditions need not be identical. Equal entries are not always repeated. Where two headings read alike, the source gives them in different places.
Legend:
[1] = system: Mtb H37Rv (ATCC 27294) strain; assay: Antimycobacterial micro broth dilution (resazurin) assay; format: cell-based, Mycobacterium tuberculosis; settings: 7 days, read-out: Anti-Mtb H37Rv MIC90
[2] = MTT cytotoxicity evaluation; settings: human, Cytotoxicity CC50 TZM-bl Cell Line, MTT assay
[3] = system: HIV-1 subtype B (NL4.3 virus); assay: Luciferase-based antiviral assay in TZM-bl cells; settings: for SI (CC50/IC50): selectivity index, TZM-bl CC50 / HIV-1 IC50
TZM-bl cell line = assay: MTT cytotoxicity evaluation; settings: read-out: Cytotoxicity CC50 TZM-bl Cell Line; MTT assay
Mtb = system: Mtb; parameters: method as in PMID 21489660; settings: antitubercular activity; cited from earlier work
[4] = molecular target: HIV reverse transcriptase; parameters: method as in PMID 30370848; settings: cited from earlier work
[5] = Mycobacterium tuberculosis, 168 h
[6] = Human immunodeficiency virus 1, TZM-bl, 48 h, read-out: Anti-HIV HIV-1 Subtype B IC50, NL4.3 virus in TZM-bl cells, 48 h, luciferase
[7] = read-out: Anti-HIV HIV-1 Subtype B IC50, NL4.3 virus in TZM-bl cells, 48 h, luciferase

Structure (SMILES)	MIC90 [1, 5] [µM]	CC50 [2] [µM]	IC50 [3, 6] [nM]	SI (CC50/IC50) [3]	further results
C#CCNc1ccccc1 [Compound 10a, N-2-propyl-1-yl-benzanamine]	3810 (≈ 500 µg/mL)				
Clc1cccc(NCc2cn(-c3ccnc4cc(Cl)ccc34)nn2)c1 [Compound 11e, [1-(7-Chloro-4-quinolinyl)-1H-1,2,3-triazole-4-methyl]-3-chloroaniline]	169 (≈ 62.5 µg/mL)	835	714000	1.17	
Clc1ccc2c(-n3cc(CNc4ccccc4)nn3)ccnc2c1 [Compound 11a]	187 (≈ 62.6 µg/mL)	> 100	3010	58.75	CC50 (TZM-bl cell line): 177 µM
Clc1ccc2c(-n3cc(CNc4ccc(Br)cc4)nn3)ccnc2c1 [Compound 11b, [1-(7-Chloro-4-quinolinyl)-1H-1,2,3-triazole-4-methyl]-4-bromoaniline]	1210 (≈ 502 µg/mL)	0.248	124000	1.994 × 10^−3	
COc1ccc2nccc(-n3cc(CN4CCN(C(C)=O)CC4)nn3)c2c1 [Compound 3]					MIC (Mtb): 0.625 µg/mL (≈ 1.71 µM)
Fc1cccc(NCc2cn(-c3ccnc4cc(Cl)ccc34)nn2)c1 [Compound 11h, [1-(7-Chloro-4-quinolinyl)-1H-1,2,3-triazole-4-methyl]-3-flouroaniline]	88 (≈ 31.1 µg/mL)	25.5	10.3	2472.87	MIC90 [1]: 88.72 µM (≈ 31.4 µg/mL); IC50 [3, 7]: 10.3 nM
Fc1ccc(NCc2cn(-c3ccnc4cc(Cl)ccc34)nn2)cc1 [Compound 11d, [1-(7-Chloro-4-quinolinyl)-1H-1,2,3-triazole-4-methyl]-4-flouroaniline]	177 (≈ 62.5 µg/mL)	1320			Anti-HIV HIV-1 Subtype B IC50 ([3]; NL4.3 virus in TZM-bl cells, 48 h, luciferase): DNC *
COc1ccc2nccc(-n3cc(CNC(C)=O)nn3)c2c1 [Compound 1]					MIC (Mtb): 0.625 µg/mL (≈ 2.1 µM)
O=C1O[C@](C#CC2CC2)(C(F)(F)F)c2ccccc2N1Cc1cn(-c2ccnc3cc(Cl)ccc23)nn1 [Compound 5]					IC50 [4]: 800 nM
[N-]=[N+]=Nc1ccnc2cc(Cl)ccc12 [Compound 7, 4-azido-7-chloroquinoline]	19.1 (≈ 3.91 µg/mL)				
COc1ccc(S(=O)(=O)NCc2cn(-c3ccnc4ccc(OC)cc34)nn2)cc1 [Compound 2]					MIC (Mtb): 0.625 µg/mL (≈ 1.47 µM)
Clc1ccc2c(-n3cc(CNc4ccc(I)cc4)nn3)ccnc2c1 [Compound 11c, [1-(7-Chloro-4-quinolinyl)-1H-1,2,3-triazole-4-methyl]-4-iodoaniline]	1080 (≈ 501 µg/mL)	157	23200	6.76	
FC(F)(F)c1ccccc1NCc1cn(-c2ccnc3cc(Cl)ccc23)nn1 [Compound 11g, [1-(7-Chloro-4-quinolinyl)-1H-1,2,3-triazole-4-methyl]-2-triflouromethylaniline]	155 (≈ 62.6 µg/mL)		388	11,367.49	IC50 [3, 7]: 388 nM
O=[N+]([O-])c1cccc(NCc2cn(-c3ccnc4cc(Cl)ccc34)nn2)c1 [Compound 11i, [1-(7-Chloro-4-quinolinyl)-1H-1,2,3-triazole-4-methyl]-3-nitroaniline]		0.00901	170	0.05	IC50 [3, 7]: 167 nM
Cc1cn([C@H]2C[C@H](N=[N+]=[N-])[C@@H](CO)O2)c(=O)[nH]c1=O [AZT, azidothymidine, reference compound]		1120	90.9	12,349 and 12,349.59	
CC[C@@H](CO)NCCN[C@@H](CC)CO [Ethambutol, reference compound]	9.68 (≈ 1.98 µg/mL)				
COc1ccc(NCc2cn(-c3ccnc4cc(Cl)ccc34)nn2)cc1 [Compound 11j, [1-(7-Chloro-4-quinolinyl)-1H-1,2,3-triazole-4-methyl]-4-methoxyaniline]	1370 (≈ 501 µg/mL)	4	180000	0.02	

— publication PMC12114169, “Synthesis, Characterisation, Biological Evaluation and In Silico Studies of Quinoline–1,2,3-Triazole–Anilines as Potential Antitubercular and Anti-HIV Agents” (Molecules, 2025)
